Laboratory results as given in PubChem BioAssay (NCI).
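Cells were grown in 96-well plates and exposed to each compound for 48 hours at five concentrations; endpoints were interpolated linearly between bracketing concentrations, or set to the highest concentration if not reached. The concentration for full growth arrest is given as TGI.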

Experiments:
Assay in all cases: NCI-60 cell line screen, 48 h
[1] = system: K-562 leukemia
[2] = system: UO-31 renal
[3] = system: CCRF-CEM leukemia
[4] = system: SNB-19 CNS
[5] = system: SNB-75 CNS
[6] = system: KM12 colon
[7] = system: SN12C renal
[8] = system: M14 melanoma
[9] = system: HCT-116 colon
[10] = system: SF-539 CNS
[11] = system: RPMI-8226 leukemia
[12] = system: HCC-2998 colon
[13] = system: ACHN renal
[14] = system: NCI-H522 lung

| Compound | TGI [1] [µM] | TGI [2] [µM] | TGI [3] [µM] | TGI [4] [µM] | TGI [5] [µM] | TGI [6] [µM] | TGI [7] [µM] | TGI [8] [µM] | TGI [9] [µM] | TGI [10] [µM] | TGI [11] [µM] | TGI [12] [µM] | TGI [13] [µM] | TGI [14] [µM] |
| --- | --- | --- | --- | --- | --- | --- | --- | --- | --- | --- | --- | --- | --- | --- |
| COC(=O)c1c(O)ccc2c1c1c(n2Cc2ccc(Cl)cc2Cl)C(=O)c2ccccc2C1 | > 100 | > 100 | 71.3 | > 100 | 58.7 | > 100 | 55.2 | > 100 | > 100 | > 100 | 49 | – | – | – |
| CCOP(=O)(O)C(C)(C)NC | > 100 | > 100 | > 100 | > 100 | – | > 100 | > 100 | > 100 | > 100 | > 100 | > 100 | > 100 | > 100 | > 100 |
| COc1ccc(/C=N/n2c(-c3ccccc3)n[nH]c2=O)cc1 | > 100 | > 100 | > 100 | > 100 | > 100 | > 100 | > 100 | > 100 | > 100 | > 100 | > 100 | > 100 | > 100 | – |
| CCOC(=O)c1ccc(NC(=O)O/N=C(/Cl)CCl)cc1 | > 100 | > 100 | > 100 | > 100 | > 100 | > 100 | > 100 | – | > 100 | > 100 | > 100 | – | > 100 | – |
| COc1ccc(-c2nc(SCC(=O)N/N=C/c3ccc(O)c(OC)c3)[nH]c2-c2ccc(OC)cc2)cc1 | 57.8 | > 100 | 92.2 | > 100 | > 100 | > 100 | 41.1 | 56.6 | 33.3 | 36.5 | – | 32.3 | 32.5 | 53.8 |
| CC[C@]1(Cc2ccc(OC)c(OC)c2)[C@@H]2C[C@@H](C3OCCO3)ON2O[C@H](OC2CCCC2(c2ccccc2)c2ccccc2)[C@@H]1OC(C)=O (some centres not stated) | 39.1 | 37.7 | 60.8 | 36.9 | 46.3 | 29.5 | > 100 | 39.6 | 50.9 | > 100 | – | – | 33.5 | 29.7 |
| CC(=O)Nc1ccc2cc(C)c(=O)[nH]c2n1 | > 100 | > 100 | > 100 | > 100 | > 100 | > 100 | > 100 | > 100 | > 100 | > 100 | > 100 | – | > 100 | > 100 |
| CC(C)(C)[Si](C)(C)OC1/C(=C/C#N)C(n2ccc(=O)[nH]c2=O)OC1CO (configuration not stated) | > 100 | > 100 | – | > 100 | – | > 100 | – | > 100 | > 100 | > 100 | – | – | > 100 | > 100 |
| CC1(C)OC2C(O)CN3CCS[C@H]3C2O1 (some centres not stated) | > 100 | > 100 | > 100 | > 100 | > 100 | > 100 | – | > 100 | > 100 | – | > 100 | > 100 | > 100 | > 100 |
| COc1ccc(C(=O)/C=C/c2ccncc2)cc1OC | 6.11 | 28.1 | 18.6 | 32.5 | 26.3 | – | 29.2 | 27.8 | 18.9 | 22.1 | – | – | 28.1 | 21.7 |
| CC(C)C1=C(Cc2ccccc2)C(=O)O/C1=C\c1cc(Cl)c(O)c(Cl)c1 | 40.5 | 27.1 | 41.5 | 37.1 | 36.8 | 35.1 | 35.6 | 35.6 | 34.8 | 44.4 | 65.6 | 42.3 | 33 | – |
| Cc1cn(CCCCCOC(=O)NC(CCCN=C(N)N)C(=O)O)c(=O)[nH]c1=O (configuration not stated) | > 100 | > 100 | > 100 | > 100 | > 100 | > 100 | > 100 | > 100 | > 100 | > 100 | 57 | > 100 | > 100 | – |
| N#CC1(C#N)C2CCCCC23OC(=N)C1(C#N)C(c1ccccc1)O3 (configuration not stated) | > 100 | > 100 | > 100 | > 100 | 11.7 | 25.8 | 26.7 | 28.7 | 41.4 | 42.1 | – | 29 | > 100 | – |
| CC(CCC#N)(CCC#N)C(=O)CC(O)(C(F)(F)F)C(F)(F)F | 5.87 | 13.1 | 7.84 | 53 | 34.5 | 34.2 | 23.5 | 4.81 | 7.57 | 8.75 | – | 31.3 | 20.2 | – |
| COC(=O)C1C=CN(N(C)C)C2=C1C(=O)c1c(O)cccc1C2=O (configuration not stated) | 52.1 | 15.8 | 5.04 | 5.58 | 3.19 | 6.95 | 3.95 | – | 5.79 | – | 5.97 | 3.67 | 12.4 | 5.95 |
| Oc1ccc(-c2nc(-c3ccc(F)cc3)c(-c3ccc4ccccc4n3)[nH]2)cc1 | > 100 | 26.1 | > 100 | 37.1 | 41.6 | 19.1 | 32.1 | 22.9 | 32.4 | – | > 100 | 15.3 | 24.9 | – |
| CCOC(=O)c1ccc(C(=O)/C(C#N)=C2\CCCN2C)[nH]1 | > 100 | > 100 | > 100 | > 100 | > 100 | > 100 | > 100 | > 100 | > 100 | – | > 100 | > 100 | > 100 | > 100 |
| Cc1ccsc1/C=N/Nc1ccc2ccccc2n1 | > 100 | > 100 | > 100 | > 100 | > 100 | > 100 | > 100 | > 100 | > 100 | – | > 100 | > 100 | > 100 | – |
